In experiment [1] the target is T1, Trifunctional purine biosynthetic protein adenosine-3 (Homo sapiens, UniProt P22102).
T1 sequence (P22102 whole entry): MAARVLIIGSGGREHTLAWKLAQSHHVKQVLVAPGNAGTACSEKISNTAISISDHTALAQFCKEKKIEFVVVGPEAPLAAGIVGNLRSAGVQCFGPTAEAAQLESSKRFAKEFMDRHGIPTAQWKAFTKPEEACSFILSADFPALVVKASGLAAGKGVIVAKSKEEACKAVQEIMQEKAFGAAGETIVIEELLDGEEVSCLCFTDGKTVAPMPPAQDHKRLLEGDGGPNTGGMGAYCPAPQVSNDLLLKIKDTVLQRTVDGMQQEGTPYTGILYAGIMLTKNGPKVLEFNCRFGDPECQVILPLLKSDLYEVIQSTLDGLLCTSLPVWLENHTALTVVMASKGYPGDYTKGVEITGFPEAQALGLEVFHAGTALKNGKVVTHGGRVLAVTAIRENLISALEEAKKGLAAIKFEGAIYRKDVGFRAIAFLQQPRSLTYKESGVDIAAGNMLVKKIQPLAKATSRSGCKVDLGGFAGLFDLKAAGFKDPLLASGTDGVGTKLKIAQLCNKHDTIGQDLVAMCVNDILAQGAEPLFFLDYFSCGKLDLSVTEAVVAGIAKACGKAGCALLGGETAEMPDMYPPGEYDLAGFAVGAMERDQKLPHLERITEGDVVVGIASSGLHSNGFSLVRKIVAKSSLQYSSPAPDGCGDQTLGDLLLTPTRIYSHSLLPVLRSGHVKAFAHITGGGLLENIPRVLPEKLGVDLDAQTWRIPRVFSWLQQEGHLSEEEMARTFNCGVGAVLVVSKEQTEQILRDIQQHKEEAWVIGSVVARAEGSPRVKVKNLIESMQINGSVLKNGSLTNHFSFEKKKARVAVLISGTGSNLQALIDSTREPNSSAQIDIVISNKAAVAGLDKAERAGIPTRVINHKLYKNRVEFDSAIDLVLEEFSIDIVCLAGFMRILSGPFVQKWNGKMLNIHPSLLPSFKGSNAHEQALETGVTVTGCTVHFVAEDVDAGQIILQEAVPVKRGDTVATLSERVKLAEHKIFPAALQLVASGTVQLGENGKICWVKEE
In words: Compound was evaluated for the ability to inhibit Glycinamide ribonucleotide formyltransferase from Manca cells. Format: cell-based.

Experiment [2] concerns Manca. Kind of experiment: Compound was evaluated for the ability to inhibit growth of Manca human lymphoma cells. The experiment is classed as functional, cell-based.
Experiment [3] has as its target T2, Thymidylate synthase (Lactobacillus casei, UniProt P00469).
T2 sequence (P00469 whole entry): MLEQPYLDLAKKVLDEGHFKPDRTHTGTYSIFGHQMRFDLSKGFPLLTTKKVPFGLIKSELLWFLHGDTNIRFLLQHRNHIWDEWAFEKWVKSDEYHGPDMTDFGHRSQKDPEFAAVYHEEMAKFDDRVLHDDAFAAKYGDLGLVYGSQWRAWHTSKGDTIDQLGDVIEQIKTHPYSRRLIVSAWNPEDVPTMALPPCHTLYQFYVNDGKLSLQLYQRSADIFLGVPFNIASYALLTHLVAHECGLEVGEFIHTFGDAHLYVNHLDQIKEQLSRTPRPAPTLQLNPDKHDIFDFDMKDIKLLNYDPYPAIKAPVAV
In words: Compound was evaluated for the ability to inhibit thymidylate synthase from Lactobacillus casei cells. More on the design: species or system Lacticaseibacillus casei.

Experiment [4] addresses Thymidylate synthase (Homo sapiens, UniProt P04818). In words: Compound was evaluated for the ability to inhibit thymidylate synthase from Manca cells. Format: cell-based.

The structures appear in SMILES notation.

We go through one compound from ChEMBL document CHEMBL1125240, “Synthesis and biological activity of 5,11-methylenetetrahydro-5- deazahomofolic acid” (J Med Chem, 1991).

Sequence of Thymidylate synthase (Homo sapiens, UniProt P04818) (P04818 whole entry): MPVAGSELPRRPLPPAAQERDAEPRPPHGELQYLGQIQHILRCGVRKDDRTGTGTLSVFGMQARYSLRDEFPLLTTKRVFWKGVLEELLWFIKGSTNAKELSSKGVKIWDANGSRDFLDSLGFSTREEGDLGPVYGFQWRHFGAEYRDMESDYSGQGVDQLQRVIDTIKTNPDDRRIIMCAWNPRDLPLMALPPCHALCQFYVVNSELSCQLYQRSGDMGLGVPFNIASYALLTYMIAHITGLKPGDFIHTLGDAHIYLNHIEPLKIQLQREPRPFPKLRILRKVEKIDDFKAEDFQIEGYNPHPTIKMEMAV

As to `Nc1nc2c(c(=O)[nH]1)C1CN(c3ccc(C(=O)NC(CCC(=O)O)C(=O)O)cc3)CCC1CN2` (centres undefined), the IC50 (in general, the concentration at which inhibition is half-maximal) in experiment [1] is over 20 µM; in experiment [2] it was over 14 µM; in experiment [3], over 100 µM; in experiment [4], over 200 µM.
